Experimental data from publication PMC8234192 (2021).

Tested on: dsDNA (69 bp) (DNA, duplex) GATACGAGCATCGTGTAGGCATCGTAGGTAATACGGATGTGCTAGCTTATTGAATTCAGAGATCTATGC/GCATAGATCTCTGAATTCAATAAGCTAGCACATCCGTATTACCTACGATGCCTACACGATGCTCGTATC
Test: fluorescence molecular brightness titration (FCS set-up)
Details: 137 mM Na+, 2.7 mM K+, PBS pH 7.4, 0.002% Tween20, 25 °C, 20 nM YOYO-1, mono-intercalation step, 3.5 bp per site

Structure (SMILES): CN1C(=Cc2cc[n+](CCC[N+](C)(C)CCC[N+](C)(C)CCC[n+]3ccc(C=C4Oc5ccccc5N4C)c4ccccc43)c3ccccc23)Oc2ccccc21
- K1: 3.36 ± 0.43 × 10^7 M^-1
